Tests used:
Type in all cases: cell-based
[1] = test system: S. agalactiae 02B1SJ1c; assay: Method of dilutions in liquid medium (M.I.C.); conditions: reading after 24 hours, 37° C.
Description: (§1) Method of Dilutions in Liquid Medium A series of tubes were prepared in which the same quantity of nutritive sterile medium was distributed. Increasing quantities of the product to be studied were distributed into each tube and then each tube was seeded with a bacterial strain. After incubation for twenty-four hours in an oven at 37° C., the growth inhibition was evaluated by transillumination, which allowed the minimal inhibitory concentrations (M.I.C.) to be determined, expressed in micrograms/ml. The following results were obtained: (reading after 24 hours)

[2] = test system: S. agalactiae 02B1HT1; assay: Method of dilutions in liquid medium (M.I.C.); conditions: reading after 24 hours, 37° C.
Description: as §1

[3] = test system: S. faecalis 02D2UC1; assay: Method of dilutions in liquid medium (M.I.C.); conditions: reading after 24 hours, 37° C.
Description: as §1

[4] = test system: S. faecium 02D3HT1; assay: Method of dilutions in liquid medium (M.I.C.); conditions: reading after 24 hours, 37° C.
Description: as §1

[5] = test system: Streptococcus gr. G 02GOGR5; assay: Method of dilutions in liquid medium (M.I.C.); conditions: reading after 24 hours, 37° C.
Description: as §1

[6] = test system: S. pneumoniae 030GR20; assay: Method of dilutions in liquid medium (M.I.C.); conditions: reading after 24 hours, 37° C.
Description: as §1

[7] = test system: S. pneumoniae 032UC1; assay: Method of dilutions in liquid medium (M.I.C.); conditions: reading after 24 hours, 37° C.
Description: as §1

[8] = test system: S. aureus 011UC4; assay: Method of dilutions in liquid medium (M.I.C.); conditions: reading after 24 hours, 37° C.
Description: as §1

[9] = test system: S. epidermidis 012GO11I; assay: Method of dilutions in liquid medium (M.I.C.); conditions: reading after 24 hours, 37° C.
Description: as §1

[10] = test system: S. aureus 011GO25I; assay: Method of dilutions in liquid medium (M.I.C.); conditions: reading after 24 hours, 37° C.
Description: as §1

[11] = test system: S. mitis 02MitCB1; assay: Method of dilutions in liquid medium (M.I.C.); conditions: reading after 24 hours, 37° C.
Description: as §1

[12] = test system: S. pyogenes 02A1UC1; assay: Method of dilutions in liquid medium (M.I.C.); conditions: reading after 24 hours, 37° C.
Description: as §1

[13] = test system: Haemophilus Influenzae 351CB12; assay: Activity on Gram- bacterial strains
Description: (§2) Method of Dilutions in Liquid Medium
as §1, with “A” for “Method of Dilutions in Liquid Medium A”, “micrograms/ml.” for “micrograms/ml. The following results were obtained: (reading after 24 hours)”

[14] = test system: Haemophilus Influenzae 351CA1; assay: Activity on Gram- bacterial strains
Description: as §2
as §1, with “A” for “Method of Dilutions in Liquid Medium A”, “micrograms/ml.” for “micrograms/ml. The following results were obtained: (reading after 24 hours)”

[15] = test system: Haemophilus Influenzae 351HT3; assay: Activity on Gram- bacterial strains
Description: as §2
as §1, with “A” for “Method of Dilutions in Liquid Medium A”, “micrograms/ml.” for “micrograms/ml. The following results were obtained: (reading after 24 hours)”

Compound	minimal inhibitory concentrations (M.I.C.) [1] [micrograms/ml]	minimal inhibitory concentrations (M.I.C.) [2]	minimal inhibitory concentrations (M.I.C.) [3] [micrograms/ml]	minimal inhibitory concentrations (M.I.C.) [4]	minimal inhibitory concentrations (M.I.C.) [5] [micrograms/ml]	minimal inhibitory concentrations (M.I.C.) [6]	minimal inhibitory concentrations (M.I.C.) [7] [micrograms/ml]	minimal inhibitory concentrations (M.I.C.) ([8]; S. aureus 011UC4 + 50% serum) [micrograms/ml]	minimal inhibitory concentrations (M.I.C.) ([8]; S. aureus 011UC4) [micrograms/ml]	minimal inhibitory concentrations (M.I.C.) [9] [micrograms/ml]	minimal inhibitory concentrations (M.I.C.) [10] [micrograms/ml]	minimal inhibitory concentrations (M.I.C.) [11] [micrograms/ml]	minimal inhibitory concentrations (M.I.C.) [12]	activity on Gram- bacterial strain [13]	activity on Gram- bacterial strain [14]	activity on Gram- bacterial strain [15]
(3aS,4R,7S,9R,10R,11R,13R,15R,15aR,18S)-4-ethyl-7-fluoro-3a,4,10,11,12,13,15,15a-octahydro-18-(hydroxymethyl)-11-methoxy-3a,7,9,11,13,15-hexamethyl-10-[[3,4,6-trideoxy-3-(dimethylamino)-beta-D-xylo-hexopyranosyl]oxy]-14,1-(nitriloethano)-2H-oxacyclotetradecino[4,3-d]oxazole-2,6,8(7H,9H)-trione [Example 3]	0.02	0.02 micrograms/ml	0.02	0.02 micrograms/ml	0.02	0.02 micrograms/ml	0.02	0.040	0.040	0.150	0.040	0.02	# 0.02 micrograms/ml			
CC[C@H]1OC(=O)[C@@](C)(F)C(=O)[C@H](C)[C@@H](O[C@@H]2O[C@H](C)C[C@H](N(C)C)[C@H]2O)[C@](C)(OC)C[C@@H](C)C2=NCCN3C(=O)O[C@@]1(C)[C@H]3[C@H]2C (relative stereo) [Example 1, [3 as-(3aR*,4S*,7R*,9S*,10S*,11S*,13S*,15S*,15aS*)]-4-ethyl-7-fluoro-3a,4,10,11,12,13,15,15a-octahydro-11-methoxy-3a,7,9,11,13,15-hexamethyl-10-[[3,4,6-trideoxy-3-(dimethyl-amino)-beta-D-xylo-hexopyranosyl]oxy]-14,1-(nitriloethano)-2H-oxacyclotetradecino[4,3-d]oxazole-2,6,8(9H)-trione]	1.200	# 0.02 micrograms/ml	0.040	# 0.02 micrograms/ml	0.040	# 0.02 micrograms/ml	0.080	0.040	0.150	0.300	0.600	0.040	0.040 micrograms/ml	useful activity	useful activity	useful activity
